Experiment in all cases: relative viability (nuclei count vs DMSO), 5 days (fraction); higher = more cells survive
Compound in experiment [1]: CS(=O)(=O)c1ccc(-c2cnc(N)c(C(=O)Nc3ccccc3)n2)cc1 [VE-821] + CC1(C)CCC(c2ccc(Cl)cc2)=C(CN2CCN(c3ccc(C(=O)NS(=O)(=O)c4ccc(N[C@H](CCN5CCOCC5)CSc5ccccc5)c(S(=O)(=O)C(F)(F)F)c4)cc3)CC2)C1 [Navitoclax] (partner 0.5 µM)
In a few lines: (§1)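 Lung cancer cell lines in 1536-well plates were dosed by pin tool the day after seeding, either with one drug alone or with a fixed anchor-drug dose plus five library-drug doses (not always all listed) in √10 steps. After 5 days, cells were fixed and their nuclei stained in one step (final 0.05% Triton X-100, 1% formaldehyde, 1 ug/ml Hoechst), then counted on 4× images. Relative viability is the nuclei count in treated wells divided by that in vehicle wells. Values are medians of duplicate plates.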

Compound in experiment [2]: N#CC[C@H](C1CCCC1)n1cc(-c2ncnc3[nH]ccc23)cn1 [Ruxolitinib] + CC1(C)CCC(c2ccc(Cl)cc2)=C(CN2CCN(c3ccc(C(=O)NS(=O)(=O)c4ccc(N[C@H](CCN5CCOCC5)CSc5ccccc5)c(S(=O)(=O)C(F)(F)F)c4)cc3)CC2)C1 [Navitoclax] (partner 0.5 µM)
In a few lines: as §1

Compound in experiment [3]: N#CC[C@H](C1CCCC1)n1cc(-c2ncnc3[nH]ccc23)cn1 [Ruxolitinib] + Cc1nc(NC(=O)N2CCC[C@H]2C(N)=O)sc1-c1ccnc(C(C)(C)C(F)(F)F)c1 [Alpelisib] (partner 2 µM)
In a few lines: as §1

Compound in experiment [4]: N#CC[C@H](C1CCCC1)n1cc(-c2ncnc3[nH]ccc23)cn1 [Ruxolitinib] + Cc1cc(Nc2cc(N3CCN(C)CC3)nc(Sc3ccc(NC(=O)C4CC4)cc3)n2)n[nH]1 [Tozasertib] (partner 0.1 µM)
In a few lines:
as §1

Consider IA-LM, for which the relative viability in experiment [1] (first compound 0.08 µM) worked out at 0.855; in experiment [1] (first compound 0.253 µM) it was 0.71; in experiment [1] (first compound 0.8 µM), 0.755; in experiment [1] (first compound 2.53 µM) it was 0.92; in experiment [1] (first compound 8 µM) it was 0.527; in experiment [2] (first compound 0.08 µM), 0.821. Further, the relative viability was found to be 0.85 in experiment [2] (first compound 0.253 µM); 0.913 in experiment [2] (first compound 0.8 µM); 0.743 in experiment [2] (first compound 2.53 µM); 0.395 in experiment [2] (first compound 8 µM); 0.676 in experiment [3] (first compound 0.08 µM); 0.849 in experiment [3] (first compound 0.253 µM). The relative viability was determined as 0.959 in experiment [3] (first compound 0.8 µM), 0.584 in experiment [3] (first compound 2.53 µM) and 0.679 in experiment [3] (first compound 8 µM).

LCLC-103H: the relative viability in experiment [4] (first compound 0.08 µM) was 0.492; in experiment [4] (first compound 0.253 µM), 0.519; in experiment [4] (first compound 0.8 µM), 0.595; in experiment [4] (first compound 2.53 µM) it was 0.552; in experiment [4] (first compound 8 µM) it was 0.501; in experiment [3] (first compound 0.08 µM) it was 1.02. Moreover, the relative viability in experiment [3] (first compound 0.253 µM) was determined as 0.875; in experiment [3] (first compound 0.8 µM), 1.08; in experiment [3] (first compound 2.53 µM), 1.03; in experiment [3] (first compound 8 µM) it was 1.02.

In the case of NCI-H358, the relative viability came to 0.102 in experiment [4] (first compound 0.08 µM); 0.0986 in experiment [4] (first compound 0.253 µM); 0.102 in experiment [4] (first compound 0.8 µM); 0.102 in experiment [4] (first compound 2.53 µM); 0.0752 in experiment [4] (first compound 8 µM); 0.787 in experiment [3] (first compound 0.08 µM). The relative viability in experiment [3] (first compound 0.253 µM) was 0.913; in experiment [3] (first compound 0.8 µM), 0.867; in experiment [3] (first compound 2.53 µM), 0.65; in experiment [3] (first compound 8 µM), 0.554.

NCI-H522: the relative viability came to 0.576 in experiment [4] (first compound 0.08 µM); 0.567 in experiment [4] (first compound 0.253 µM); 0.602 in experiment [4] (first compound 0.8 µM); 0.533 in experiment [4] (first compound 2.53 µM); 0.524 in experiment [4] (first compound 8 µM).

In the case of NCI-H650, the relative viability in experiment [4] (first compound 0.253 µM) was determined as 0.834; in experiment [4] (first compound 0.8 µM) it was 0.788; in experiment [4] (first compound 2.53 µM) it was 0.554; in experiment [4] (first compound 8 µM), 0.603; in experiment [3] (first compound 0.253 µM), 1.33; in experiment [3] (first compound 0.8 µM) it was 1.23. In addition, the figures for the relative viability in experiment [3] (first compound 2.53 µM) and in experiment [3] (first compound 8 µM) were 0.964 and 0.667, respectively.

Take NCI-H661: the relative viability is 0.358 in experiment [4] (first compound 0.08 µM); 0.354 in experiment [4] (first compound 0.253 µM); 0.365 in experiment [4] (first compound 0.8 µM); 0.363 in experiment [4] (first compound 2.53 µM); 0.352 in experiment [4] (first compound 8 µM); 0.406 in experiment [3] (first compound 0.08 µM). Besides, the relative viability in experiment [3] (first compound 0.253 µM) was found to be 0.623; in experiment [3] (first compound 0.8 µM), 0.579; in experiment [3] (first compound 2.53 µM), 0.583; in experiment [3] (first compound 8 µM), 0.252.

Regarding NCI-H1299, the relative viability in experiment [1] (first compound 0.08 µM) is 1.05; in experiment [1] (first compound 0.253 µM), 1.04; in experiment [1] (first compound 0.8 µM) it was 1.01; in experiment [1] (first compound 2.53 µM) it was 1; in experiment [1] (first compound 8 µM) it was 1.03; in experiment [2] (first compound 0.08 µM), 1.03. Further, the relative viability came out at 1.05 in experiment [2] (first compound 0.253 µM); 1.02 in experiment [2] (first compound 0.8 µM); 1.02 in experiment [2] (first compound 2.53 µM); 0.85 in experiment [2] (first compound 8 µM); 1.05 in experiment [3] (first compound 0.08 µM); 1.08 in experiment [3] (first compound 0.253 µM). The relative viability amounted to 1.05 in experiment [3] (first compound 0.8 µM), 0.949 in experiment [3] (first compound 2.53 µM) and 0.996 in experiment [3] (first compound 8 µM).

Consider NCI-H1563, for which the relative viability in experiment [3] (first compound 0.08 µM) amounted to 0.923; in experiment [3] (first compound 0.253 µM), 0.813; in experiment [3] (first compound 0.8 µM), 1; in experiment [3] (first compound 2.53 µM) it was 0.895; in experiment [3] (first compound 8 µM) it was 0.818.

NCI-H1623: the relative viability in experiment [4] (first compound 0.08 µM) stood at 0.488; in experiment [4] (first compound 0.253 µM) it was 0.485; in experiment [4] (first compound 0.8 µM) it was 0.49; in experiment [4] (first compound 2.53 µM) it was 0.49; in experiment [4] (first compound 8 µM), 0.479.

Take NCI-H1648: the relative viability in experiment [4] (first compound 0.253 µM) worked out at 0.414; in experiment [4] (first compound 0.8 µM) it was 0.747; in experiment [4] (first compound 2.53 µM), 0.878; in experiment [4] (first compound 8 µM), 1.14.

As to NCI-H1650, the relative viability came to 1.45 in experiment [1] (first compound 0.08 µM); 1.25 in experiment [1] (first compound 0.253 µM); 0.725 in experiment [1] (first compound 0.8 µM); 1.29 in experiment [1] (first compound 2.53 µM); 0.751 in experiment [1] (first compound 8 µM); 1.05 in experiment [2] (first compound 0.253 µM). For the same cell line, the relative viability in experiment [2] (first compound 0.8 µM) is 1.23; in experiment [2] (first compound 2.53 µM), 0.96; in experiment [2] (first compound 8 µM) it was 0.971; in experiment [4] (first compound 0.253 µM), 0.503; in experiment [4] (first compound 0.8 µM) it was 0.386; in experiment [4] (first compound 2.53 µM), 0.455. In experiment [4] (first compound 8 µM), the relative viability worked out at 0.357.

Turning to NCI-H1703, the relative viability in experiment [1] (first compound 0.08 µM) turned out to be 1.25; in experiment [1] (first compound 0.253 µM), 0.923; in experiment [1] (first compound 0.8 µM) it was 1.17; in experiment [1] (first compound 2.53 µM) it was 0.394; in experiment [1] (first compound 8 µM) it was 0.246; in experiment [2] (first compound 0.08 µM) it was 1.18. In addition, the relative viability turned out to be 1.23 in experiment [2] (first compound 0.253 µM); 1.23 in experiment [2] (first compound 0.8 µM); 0.562 in experiment [2] (first compound 2.53 µM); 0.611 in experiment [2] (first compound 8 µM); 0.316 in experiment [3] (first compound 0.08 µM); 0.343 in experiment [3] (first compound 0.253 µM). For the same cell line, the figures for the relative viability in experiment [3] (first compound 0.8 µM), in experiment [3] (first compound 2.53 µM) and in experiment [3] (first compound 8 µM) were 0.382, 0.19 and 0.283, respectively.

Turning to NCI-H1792, the relative viability in experiment [1] (first compound 0.08 µM) amounted to 0.66; in experiment [1] (first compound 0.253 µM), 0.639; in experiment [1] (first compound 0.8 µM), 0.63; in experiment [1] (first compound 2.53 µM), 0.685; in experiment [1] (first compound 8 µM), 0.623; in experiment [2] (first compound 0.08 µM), 0.658. For the same cell line, the relative viability in experiment [2] (first compound 0.253 µM) is 0.644; in experiment [2] (first compound 0.8 µM), 0.595; in experiment [2] (first compound 2.53 µM) it was 0.473; in experiment [2] (first compound 8 µM), 0.519; in experiment [3] (first compound 0.08 µM), 0.652; in experiment [3] (first compound 0.253 µM), 0.687. Besides, the results for the relative viability in experiment [3] (first compound 0.8 µM), in experiment [3] (first compound 2.53 µM) and in experiment [3] (first compound 8 µM) were 0.651, 0.515 and 0.714, respectively.

On to NCI-H2342, for which the relative viability is 0.529 in experiment [4] (first compound 0.08 µM); 0.556 in experiment [4] (first compound 0.253 µM); 0.486 in experiment [4] (first compound 0.8 µM); 0.479 in experiment [4] (first compound 2.53 µM); 0.532 in experiment [4] (first compound 8 µM).

For the cell line SW 900, the relative viability in experiment [4] (first compound 0.08 µM) is 0.581; in experiment [4] (first compound 0.253 µM) it was 0.649; in experiment [4] (first compound 0.8 µM), 0.499; in experiment [4] (first compound 2.53 µM), 0.534; in experiment [4] (first compound 8 µM) it was 0.625.

These data come from the supplement of paper PMC10307832.
